Laboratory results: patent publication US9586956B2, “Isoquinoline and naphthyridine derivatives” (Genentech, Inc., priority 2012, dated 2017)

What follows are compounds tested against T1, purified human MAP4K4 kinase domain (Homo sapiens, UniProt O95819) (assay: MAP4K4 Inhibition Assay Protocol No. 1 (Caliper LabChip, moesin-derived peptide phosphorylation)). Conditions: Assay 1; 1 nM enzyme, 10 uM ATP, 45 min.
T1 construct: purified human MAP4K4 kinase domain
T1 sequence (O95819 25-289 limits assumed): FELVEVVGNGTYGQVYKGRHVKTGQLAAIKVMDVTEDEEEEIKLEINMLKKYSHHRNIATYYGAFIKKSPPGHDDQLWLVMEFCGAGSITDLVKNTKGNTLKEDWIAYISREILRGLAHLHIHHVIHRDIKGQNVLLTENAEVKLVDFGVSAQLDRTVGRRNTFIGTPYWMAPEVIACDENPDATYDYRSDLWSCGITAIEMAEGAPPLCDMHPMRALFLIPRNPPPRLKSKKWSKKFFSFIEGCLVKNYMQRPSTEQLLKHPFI
Type: biochemical
Method: The kinase activity of purified human MAP4K4 kinase domain was measured by monitoring the phosphorylation of a peptide substrate derived from moesin protein (Leu-Gly-Arg-Asp-Lys-Tyr-Lys-Thr-Leu-Arg-Gln-Ile-Arg-Gln) fluorescently labeled on the N-terminus with 5-carboxyfluorescein using the Caliper LabChip technology (Caliper Life Sciences, Hopkinton, Mass.). To determine inhibition constants (IC50), compounds were serially diluted in DMSO and added to 10 uL kinase reactions containing 1 nM purified MAP4K4 enzyme, 1 uM peptide substrate, 10 uM ATP, 10 mM MgCl2, 1 mM EGTA, 50 mM Hepes pH 7.2, 1 mM DTT, 0.01% Triton X-100, and 2% DMSO. Reactions were incubated at room temperature in Perkin Elmer Proxiplates for 45 minutes and stopped by the addition of 10 uL of an EDTA-containing solution (50 mM Hepes pH 7.2, 40 mM EDTA, 0.02% Triton X-100). The fraction of phosphorylated peptide was determined as a fraction of total peptide substrate using the Caliper Lab Chip 3000 according to the manufacturer's instructions. IC50 values were determined using the four-parameter non-linear fit model.
Nc1ncc(C(=O)NCc2ccncc2)c2ccc(-c3cccc(F)c3)cc12 [Example 93, 1-amino-7-(3-fluorophenyl)-N-(4-pyridylmethyl) isoquinoline-4-carboxamide] gave an IC50 of 0.0645 µM. For Nc1ncc(-c2nc3ccccc3[nH]2)c2ccc(-c3cccc(F)c3)cc12 [Example 2, 4-(1H-benzimidazol-2-yl)-7-(3-fluorophenyl)isoquinolin-1-amine], the IC50 was 0.299 µM. Compound CN1CCN(CCNC(=O)c2cnc(N)c3cc(-c4cccc(F)c4)ccc23)CC1 [Example 83, 1-amino-7-(3-fluorophenyl)-N-[2-(4-methylpiperazin-1-yl)ethyl]isoquinoline-4-carboxamide] has an IC50 of 0.217 µM. N#Cc1cnc(N)c2cc(-c3cccc(F)c3)ccc12 [Example 4, 1-amino-7-(3-fluorophenyl)isoquinoline-4-carbonitrile] was tested, and the IC50 was 0.0221 µM. With CN(C)C(=O)c1nc(CNC(=O)c2cnc(N)c3cc(-c4cccc(F)c4)ccc23)no1 [Example 1, 3-[[[1-amino-7-(3-fluorophenyl)isoquinoline-4-carbonyl]amino]methyl]-N,N-dimethyl-1,2,4-oxadiazole-5-carboxamide] the IC50 was 0.122 µM. In the case of CNC(=O)c1cnc(N)c2cc(-c3cccc(F)c3)ccc12 [Example 74, 1-amino-7-(3-fluorophenyl)-N-methyl-isoquinoline-4-carboxamide], the IC50 is reported as 0.0395 µM. Nc1ncc(C(=O)N2CCN(CCO)CC2)c2ccc(-c3cccc(F)c3)cc12 [Example 65, [1-amino-7-(3-fluorophenyl)-4-isoquinolyl]-[4-(2-hydroxyethyl)piperazin-1-yl]methanone] showed an IC50 of 1.7 µM. For Cc1cncc(NC(=O)c2cnc(N)c3cc(-c4cccc(F)c4)ccc23)c1 [Example 116, 1-amino-7-(3-fluorophenyl)-N-(5-methyl-3-pyridyl) isoquinoline-4-carboxamide], the IC50 was 0.114 µM. Nc1ncc(C(=O)NC2CC2)c2ccc(-c3cccc(F)c3)cc12 [Example 108, 1-amino-N-cyclopropyl-7-(3-fluorophenyl) isoquinoline-4-carboxamide] gave an IC50 of 0.0156 µM. CN1CCC(NC(=O)c2cnc(N)c3cc(-c4cccc(F)c4)ccc23)CC1 [Example 67, 1-amino-7-(3-fluorophenyl)-N-(1-methyl-4-piperidyl) isoquinoline-4-carboxamide] was tested, and the IC50 was 0.651 µM. For Nc1ncc(C(=O)NCCCO)c2ccc(-c3cccc(F)c3)cc12 [Example 100, 1-amino-7-(3-fluorophenyl)-N-(3-hydroxypropyl) isoquinoline-4-carboxamide], the IC50 was 0.0395 µM. For Nc1ncc(C(=O)NC2CCOCC2)c2ccc(-c3cccc(F)c3)cc12 [Example 68, 1-amino-7-(3-fluorophenyl)-N-tetrahydropyran-4-yl-isoquinoline-4-carboxamide], the IC50 was 0.12 µM. CC(=O)N1CCC(NC(=O)c2cnc(N)c3cc(-c4cccc(F)c4)ccc23)CC1 [Example 57, N-(1-acetyl-4-piperidyl)-1-amino-7-(3-fluorophenyl) isoquinoline-4-carboxamide] showed an IC50 of 0.102 µM. In the case of Nc1ncc(C(=O)NCCCN2CCOCC2)c2ccc(-c3cccc(F)c3)cc12 [Example 64, 1-amino-7-(3-fluorophenyl)-N-(3-morpholinopropyl) isoquinoline-4-carboxamide], the IC50 is reported as 0.34 µM. Work on CCNC(=O)c1cnc(N)c2cc(-c3cccc(F)c3)ccc12 [Example 99, 1-amino-N-ethyl-7-(3-fluorophenyl)isoquinoline-4-carboxamide] yielded an IC50 of 0.0257 µM. Nc1ncc(C(=O)NCC2CCOCC2)c2ccc(-c3cccc(F)c3)cc12 [Example 56, 1-amino-7-(3-fluorophenyl)-N-(tetrahydropyran-4-ylmethyl)isoquinoline-4-carboxamide] gave an IC50 of 0.249 µM. With Cc1ncc(NC(=O)c2cnc(N)c3cc(-c4cccc(F)c4)ccc23)cn1 [Example 117, 1-amino-7-(3-fluorophenyl)-N-(2-methylpyrimidin-5-yl)isoquinoline-4-carboxamide] the IC50 was 0.07 µM. Work on Nc1ncc(C(=O)NC2CCC2)c2ccc(-c3cccc(F)c3)cc12 [Example 97, 1-amino-N-cyclobutyl-7-(3-fluorophenyl) isoquinoline-4-carboxamide] yielded an IC50 of 0.03 µM. Work on Nc1ncc(C(=O)N2CCC(CO)CC2)c2ccc(-c3cccc(F)c3)cc12 [Example 55, [1-amino-7-(3-fluorophenyl)-4-isoquinolyl]-[4-(hydroxy-methyl)-1-piperidyl] methanone] yielded an IC50 of 0.622 µM. Work on Nc1ncc(C(=O)NCc2cccnc2)c2ccc(-c3cccc(F)c3)cc12 [Example 94, 1-amino-7-(3-fluorophenyl)-N-(3-pyridylmethyl) isoquinoline-4-carboxamide] yielded an IC50 of 0.077 µM. With NCc1cnc(N)c2cc(-c3cccc(F)c3)ccc12 [Example 5, 4-(aminomethyl)-7-(3-fluorophenyl)isoquinolin-1-amine] the IC50 was 1.2 µM. COc1ccccc1CNC(=O)c1cnc(N)c2cc(-c3cccc(F)c3)ccc12 [Example 90, 1-amino-7-(3-fluorophenyl)-N-[(2-methoxyphenyl)methyl]isoquinoline-4-carboxamide] showed an IC50 of 0.141 µM. Compound Nc1ncc(C(=O)NC2CCCC2)c2ccc(-c3cccc(F)c3)cc12 [Example 98, 1-amino-N-cyclopentyl-7-(3-fluorophenyl) isoquinoline-4-carboxamide] has an IC50 of 0.0459 µM. With CNC(=O)C1CN(C(=O)c2cnc(N)c3cc(-c4cccc(F)c4)ccc23)CCO1 (centres unmarked) [Example 60, 4-[1-amino-7-(3-fluorophenyl)isoquinoline-4-carbonyl]-N-methyl-morpholine-2-carboxamide] the IC50 was 0.238 µM. Compound Nc1ncc(C(=O)NCCN2CCCCC2=O)c2ccc(-c3cccc(F)c3)cc12 [Example 58, 1-amino-7-(3-fluorophenyl)-N-[2-(2-oxo-1-piperidyl)ethyl]isoquinoline-4-carboxamide] has an IC50 of 0.146 µM. Nc1ncc(C(=O)NC2COC2)c2ccc(-c3cccc(F)c3)cc12 [Example 115, 1-amino-7-(3-fluorophenyl)-N-(oxetan-3-yl)isoquinoline-4-carboxamide] was tested, and the IC50 was 0.0454 µM. Compound COc1cccc(CNC(=O)c2cnc(N)c3cc(-c4cccc(F)c4)ccc23)c1 [Example 91, 1-amino-7-(3-fluorophenyl)-N-[(3-methoxyphenyl)methyl]isoquinoline-4-carboxamide] has an IC50 of 0.0511 µM. Work on Nc1ncc(C(=O)NCCN2CCNC2=O)c2ccc(-c3cccc(F)c3)cc12 [Example 82, 1-amino-7-(3-fluorophenyl)-N-[2-(2-oxoimidazolidin-1-yl)ethyl]isoquinoline-4-carboxamide] yielded an IC50 of 0.148 µM. Nc1ncc(C(=O)O)c2ccc(-c3cccc(F)c3)cc12 [Example 123, 1-amino-7-(3-fluorophenyl) isoquinoline-4-carboxylic acid] gave an IC50 of 2.1 µM. Cc1cnc(CNC(=O)c2cnc(N)c3cc(-c4cccc(F)c4)ccc23)cn1 [Example 104, 1-amino-7-(3-fluorophenyl)-N-[(5-methylpyrazin-2-yl)methyl]isoquinoline-4-carboxamide] gave an IC50 of 0.0909 µM. In the case of CC(C)CNC(=O)c1cnc(N)c2cc(-c3cccc(F)c3)ccc12 [Example 92, 1-amino-7-(3-fluorophenyl)-N-isobutyl-isoquinoline-4-carboxamide], the IC50 is reported as 0.0335 µM. Nc1ncc(C(=O)NC2CCCC(O)C2)c2ccc(-c3cccc(F)c3)cc12 (centres unmarked) [Example 70, 1-amino-7-(3-fluorophenyl)-N-(3-hydroxycyclohexyl) isoquinoline-4-carboxamide] showed an IC50 of 0.0852 µM.
